The values that follow come from patent US6989377B2, “Treating vitamin D responsive diseases” (priority 1999, dated 2006).

Assay type in all cases: in vivo, mouse
Series [1] concerns DS-induced colitis in C3H/HeJ male mice. Put plainly: Calcitriol prevention of DS-induced colitis. The protocol:
Fecal hemoglobin was analyzed in the mice to determine bleeding from a breached intestinal barrier. […] Co., Needham Heights, Mass.), the supernatants were decanted into fresh tubes and stored frozen at -20° C. Hemoglobin in the supernatants was analyzed by a method adapted from Saitoh et al., Digestion, 56:67-75, 1995, and Liem et al., Anal. Biochem., 98:388-393, 1979, with rat hemoglobin as standard (Sigma-Aldrich). The supernatants were diluted 1:25 in TBS. […] The reaction was stopped with 100 μL of 2 M phosphoric acid, and the absorbance at 450 nm was measured with an MRX Revelation Microplate Reader (DYNEX Technologies). […] The mice were euthanized with an i.p. injection of pentobarbital. […] The fixed tissue was embedded in paraffin, sectioned at 6 μm, stained with hematoxylin and eosin, and examined by light microscopy. Scoring was conducted by a veterinary pathologist in blinded fashion. […] Clin. Invest., 98:1010-1020, 1996. The scores were summed to provide a total colitis score for each mouse. […] In particular, age-matched C3H/HeJ male mice were fed a synthetic diet (see Example 6) with or without calcitriol or prednisolone for one week. […] The mice were weighed every 3-4 days thereafter. […] Serum and colon tissue were collected on day 28. Most assays were performed as described in Example 6, and the terminal serum calcium assay was performed as described below. […] The serum was decanted and stored frozen at -20° C. The samples, standards, and buffer blanks (2 μL each) were aliquoted into duplicate wells of a 96-well plate. Calcium reagent working solution (0.25 mL), prepared according to the manufacturer's directions (Sigma Diagnostics, St. Louis, Mo.), was added to each well, and the absorbance at 570 nm was measured.

Series [2] has as its system DSS-induced colitis in 129X1/SvJ male mice. Nature of the series: Treatment at the first signs of DSS-induced colitis in 129X1/SvJ mice. The note with it: 50 ng/d from day 4 of 1% DSS. The source says:
The 129×1/SvJ strain is genetically similar to the 129/Ola strain and to the 129/SvPas strain, which is less susceptible to DSS-induced colitis than C3H/HeJ.

The test system of series [3] is DS-induced colitis in C3H/HeJ male mice. Put plainly: Calcitriol prevention of DS-induced colitis. The note with it: 50 ng/day in diet from day −7; 1% DS days 0 to 5; terminated day 27.
In a further series the test system is male C3H/HeJ mice. Put plainly: DS-induced colitis model in mice (weight, mortality, fecal hemoglobin, colon histopathology). The note with it: for Colon Histopathology (sum): total colitis score 0 to 16. The text has this:
This Example describes the generation of a mouse model for dextran sulfate (DS) induced colitis. This DS-induced colitis model was adapted from Okayasu et al. (1990) for use with a synthetic diet. In this Example, male C3H/HeJ mice were used, as these mice are highly susceptible to DS-induced colitis. Initially, mice were given 3.5% DS w/v in acidified water for 5 days, followed by acidified water without DS, and continuously fed a synthetic diet (synthetic diet described in Smith and Hayes, PNAS, USA, 84:5878-5882, 1987). […] These mice shunned the water containing DS, and met their hydration needs by consuming the synthetic diet (which is approximately 60% water by weight). A second group of mice were given 3.5% DS w/v in acidified water for 5 days, followed by acidified water without DS, and continuously fed laboratory chow (Purina mouse chow #5008) as described in Mahler et al., Gastrointest, Liver Physiol., 37:G544-G551 (1996). These mice, consuming an average of 0.57 g DS/mouse, lost weight (controls 26.1±0.7 g; DS group 22.8±0.3 g), and had hemoglobin (Hg) in the stool (controls 0±0 mg Hg/g stool; DS group 11.4 mg Hg/g stool).
To adapt the DS-induced model for use with the synthetic diet (see Smith and Hayes, 1987), a third group of mice were given graded amounts of DS in acidified water and a synthetic diet for 5 days, followed by acidified water and the synthetic diet without DS. These mice were weighed twice weekly and subjected to various other assays, including: fecal hemoglobin analysis, and histopathologic analysis. The results are presented below in Tables 2 and 3.
Fecal hemoglobin was analyzed in the mice to determine bleeding from a breached intestinal barrier. Fresh stool samples were collected from individual mice, dried overnight, weighed, and suspended in 0.5 mL of TRIS-buffered saline (TBS; 25 mM TRIS, 0.15 M NaCl, pH 7.6). The stool samples were centrifuged (10,000×g for 10 min) at room temperature in a Micromax centrifuge (International Equip. Co., Needham Heights, Mass.), the supernatants were decanted into fresh tubes and stored frozen at −20° C. Hemoglobin in the supernatants was analyzed by a method adapted from Saitoh et al., Digestion, 56:67-75, 1995, and Liem et al., Anal. Biochem., 98:388-393, 1979, with rat hemoglobin as standard (Sigma-Aldrich). The supernatants were diluted 1:25 in TBS. The assay was done in round-bottom, polystyrene, 96 well microtiterplates (#3555, DYNEX Technologies, Chantily, Va.). The samples, standards, and buffer blanks (20 μL each) were incubated in duplicate for 10 min with 100 μL of a substrate solution made with 9 volumes 3,3′5,5′-tetramethylbenzidine dihydrochloride peroxide solution (Turbo TMB-ELISA, Pierce Chemical Co., Rockford, Ill.) and 1 volume of hydrogen peroxide solution (Stable Peroxide Substrate Buffer, Pierce Chemical Co.). The reaction was stopped with 100 μL of 2 M phosphoric acid, and the absorbance at 450 nm was measured with an MRX Revelation Microplate Reader (DYNEX Technologies). The fecal hemoglobin assay working range was 1 to 100 μg/mL sample.
The mice were euthanized with an i.p. injection of pentobarbital. The cecal and rectal GI tract segments were collected, cut longitudinally, flushed with 10% neutral-buffered formalin, arranged in a spiral pattern in a cassette, and fixed in formalin. The fixed tissue was embedded in paraffin, sectioned at 6 μm, stained with hematoxylin and eosin, and examined by light microscopy. Scoring was conducted by a veterinary pathologist in blinded fashion. Each colon segment (proximal, medial, and distal colon, and rectum) was given a score from 0 to 4, based on the criteria described by Berg et al., J. Clin. Invest., 98:1010-1020, 1996. The scores were summed to provide a total colitis score for each mouse. The total colitis score could range from 0 (no pathology in any segment) to 16 (grade 4 lesions in all colon segments).

The mark [4] stands for this setting: 1% DS in drinking water and synthetic diet, days 0 to 5.
Where [5] appears, read: 1.5% DS in drinking water and synthetic diet, days 0 to 5.
The mark [6] stands for this setting: 2.0% DS in drinking water and synthetic diet, days 0 to 5.
[7] abbreviates: 3.0% DS in drinking water, laboratory chow.

Marks after values point to notes of the source that are not given here.

As to `C[C@]12C=CC(=O)C=C1CC[C@@H]1[C@@H]2[C@@H](O)C[C@@]2(C)[C@H]1CC[C@]2(O)C(=O)CO` [Prednisolone, prednisolone], the “Peak Hg in Stool” value in series [1] (50 ng/day in diet from day −7, 1% DS days 0 to 5) worked out at 12.3 ± 10.0 mg/g. The “Terminal serum Ca++” value in series [1] (50 ng/day in diet from day −7, 1% DS days 0 to 5, terminated day 27) stood at 10.5 ± 1.2 mg/dL. Moreover, in series [1] (50 ng/day, 1% DS, score 0 to 4), the “Colon Histopathology, Distal colon” value was 1.1 ± 0.4; the “Colon histopathology, Medial colon” value was determined as 0.3 ± 0.5; the “Colon histopathology, Proximal colon” value is reported as 1.0 ± 0; the “Colon histopathology, Rectum” value is listed as 2.9 ± 1.1. The “Colon histopathology, Sum” value in series [1] (50 ng/day, 1% DS, total score 0 to 16) turned out to be 5.3 ± 1.4. Also, in series [2], the “Colon Histopathology, Distal colon” value is listed as 2.0 ± 0.3; the “Colon Histopathology, Middle colon” value was 0.2 ± 0.3; the “Colon Histopathology, Rectum + anus” value came out at 0.8 ± 1.1; the “Colon histopathology, Proximal colon” value is 0.7 ± 0.4. Also, the “Colon histopathology, Sum” value in series [2] is listed as 3.7 ± 1.3. Besides, in series [2] (1 cycle, terminated 21 days later), the “Peak fecal hemoglobin” value is given as 0.4 ± 0.6 mg/g. Moreover, in series [2] (terminated 21 days later), the “Terminal Serum Ca” value is given as 8.3 ± 1.3 mg/dL and the “Terminal weight” value was determined as 26.5 ± 02.0 g. For the same compound, the “Terminal weight” value in series [3] is 29.4 ± 1.4 g.

On to dextran sulfate [DS], for which the “Weight change (%, day 0-11)” value in the series on male C3H/HeJ mice (1% DS in acidified drinking water and synthetic diet, days 0 to 5) is given as 2.1 ± 0.9%; in the series on male C3H/HeJ mice (setting [5]), −12.4 ± 0.7%; in the series with male C3H/HeJ mice (2.0% DS in drinking water and synthetic diet, weight change day 0 to 6, when mortality reached 100%) it was −17.5 ± 0.2^b %; in the series on male C3H/HeJ mice (setting [7]), −5.4%. For the same compound, the “Mortality (%)” value in the series on male C3H/HeJ mice (setting [4]) turned out to be 0%; with male C3H/HeJ mice (setting [5]) it was 66%; with male C3H/HeJ mice (setting [6]) it was 100%; in the series with male C3H/HeJ mice (setting [7]) it was 0%. For the same compound, the “Peak Hg in Stool” value in the series on male C3H/HeJ mice (setting [4]) came to 1.8 mg/g; in the series on male C3H/HeJ mice (setting [5]), 16.7 mg/g; in the series on male C3H/HeJ mice (setting [6]) it was 31.7 mg/g; in the series on male C3H/HeJ mice (setting [7]), 11.4 mg/g. Besides, the “Colon Histopathology (sum)” value in the series on male C3H/HeJ mice (1% DS in drinking water and synthetic diet) was 6.3 ± 3.5; with male C3H/HeJ mice (1.5% DS in drinking water and synthetic diet) it was 6.5; with male C3H/HeJ mice (setting [7]), 9.5 ± 0.9. Further, the “Hemoglobin (Hg) in the stool” value in the series on male C3H/HeJ mice (3.5% DS w/v in acidified water for 5 days, laboratory chow) is listed as 11.4 mg Hg/g stool. This compound also showed a Body weight in the series on male C3H/HeJ mice (3.5% DS w/v in acidified water for 5 days, laboratory chow, controls 26.1±0.7 g) of 22.8 ± 0.3 g. Besides, the “Signs of colitis (diarrhea, blood in the stool, weight loss)” value in the series with male C3H/HeJ mice (3.5% DS w/v in acidified water for 5 days, synthetic diet (mice shunned the DS water)) is reported as “no signs of colitis”.
